We go through 1 compound from patent publication US20060058299A1, “N-2s-4-3,4-difluorobenzyl morpholin-2yl methyl -2-(3-methylsulphonyl amino!phenyl acetamide as ccr3 antagonist for the treatment of inflammatory conditions” (priority 2002, published 2006).

The target in one assay is T1, CCR-3 (Homo sapiens, UniProt P51677).
T1 construct: expressed in transfected cells; membranes)
T1 sequence (P51677 1-355): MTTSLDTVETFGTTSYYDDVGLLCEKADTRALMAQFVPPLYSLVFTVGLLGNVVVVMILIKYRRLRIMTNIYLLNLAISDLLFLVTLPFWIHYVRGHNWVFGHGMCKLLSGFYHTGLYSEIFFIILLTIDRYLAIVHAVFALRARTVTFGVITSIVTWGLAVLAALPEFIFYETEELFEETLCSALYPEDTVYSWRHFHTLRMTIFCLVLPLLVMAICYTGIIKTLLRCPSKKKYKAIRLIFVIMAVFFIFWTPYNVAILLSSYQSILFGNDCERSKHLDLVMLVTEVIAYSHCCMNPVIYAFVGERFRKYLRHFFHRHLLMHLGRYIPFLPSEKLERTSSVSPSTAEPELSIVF
The experiment in a line: CCR-3 competition binding SPA ([125I]eotaxin). The conditions noted are these: membranes from K562 cells stably expressing CCR-3; 20 pM [125I]eotaxin; mean of at least two experiments; read-out: pIC50 (inhibition of [125I]eotaxin binding) (converted). The procedure: A CCR-3 competition binding SPA (scintillation proximity assay) was used to assess the affinity of novel compounds for CCR-3. Membranes prepared from K562 cells stably expressing CCR-3 (2.5 μg/well) were mixed with 0.25 mg/well wheat-germ agglutinin SPA beads (Amersham) and incubated in binding buffer (HEPES 50 mM, CaCl2 1 mM, MgCl2 5 mM, 0.5% BSA) at 4° C. for 1.5 hr. Following incubation, 20 pM of [^125I] eotaxin (Amersham) and increasing concentrations of compound (1 pM to 30 μM) were added and incubated in a 96 well plate for 2 hr at 22° C. then counted on a Microbeta plate counter. The total assay volume was 100 μl. Competition binding data were analysed by fitting the data with a four parameter logistic equation. Data are presented as the mean pIC50 values (negative logarithm of the concentration of compound which inhibits [^125I]eotaxin binding by 50%) from at least two experiments.

For assay [1], the target named is eosinophils purified from human peripheral blood. The experiment in a line: Eosinophil chemotaxis assay (eotaxin-induced). The format is cell-based. The conditions noted are these: agonist eotaxin at EC80 concentration. The procedure:
(b) Eosinophil Chemotaxis Assay.
The compound was evaluated for its inhibitory effect on eosinophil chemotaxis. Eosinophils were purified from human peripheral blood by standard CD16 cell depletion using a Miltenyi cell separation column and a magnetic Super Macs magnet as previously described (Motegi & Kita, 1998; J. Immunology. 161:4340-6). Cells were re-suspended in RPMI 1640/10% FCS solution and incubated with calcein-AM (Molecular Probes) at 37° C. for 30 mins. Following incubation, the eosinophils were centrifuged at 400 g for 5 min and re-suspended in RPMI/FCS at 2.2 million/ml. Cells were then incubated in the presence of increasing concentration of compounds (1 pM to 30 μM) at 37° C. for 30 mins. For control responses cells were incubated with RPMI/FCS only. The agonist eotaxin (an EC80 concentration) was added to the lower chamber of a 96 well chemotaxis plate (5 μm filter. Receptor Technologies). Eosinophils (50 μl of 2 million/ml cells) were added to the top chamber of the filter plate and incubated at 37° C. for 45 mins. Cells remaining on top of the chemotaxis filter were removed and the number of eosinophils which had migrated were quantified by reading the plate on a fluorescent plate reader. Inhibition curves for the effect of compounds on eosinophil chemotaxis were analysed by fitting the data with a four parameter logistic equation. […]

On to `CS(=O)(=O)Nc1cccc(CC(=O)NC[C@H]2CN(Cc3ccc(F)c(F)c3)CCO2)c1` [Example 1, N-{[(2S)-4-(3.4-difluorobenzyl)morpholin-2-yl]methyl}-2-{3-[(methylsulfonyl)amino]phenyl}acetamide], for which the IC50 on CCR-3 was 10 nM. For the same compound, in assay [1], the “fpKi (functional pKi, eosinophil chemotaxis)” value is given as 8.4.
